Laboratory results: US4345938A, “Herbicidal 2-haloacetanilides” (Monsanto Company, priority 1980, dated 1982)
Where two headings read alike, the source gives them in different places.

How the values were obtained:
Format in all cases: in vivo
Echinochloa crus-galli [1] = test: Greenhouse transplant rice test, EC; conditions: about 3 WAT, read-out: Percent Inhibition, EC
Source text: (§1) The test procedure used in this greenhouse test is as follows: Ray silt loam top soil containing about 0.05% by weight of krillium and sifted through a […] screen is fumigated about 5-10 days prior to use. Pots are then filled with said Ray silt loam soil to a level to allow for a 1 in. (2.54 cm) flooding depth. Rice plants (Bluebelle) of 2 to 3 weeks age are transplanted to the pots and bulbs or seeds of the test weeds also planted in the pots. The pots are then flooded and the test chemical applied to the surface of the flood water. The flood water is reduced to allow for germination of the Echinochloa crus-galli (barnyardgrass) seed and subsequently reflooded and maintained in that condition. Observations of percent inhibition using a scale of 0-100% are made about 3 weeks after transplant (WAT).
(§2) The test data in Table III for all compounds was obtained under identical test conditions. The weeds used in the tests herein have the following abbreviations in the tables: Echinochloa crus-galli (EC), Monochloria vaginalis (MV), Cyperus Serotinus (CS), Eleocharis Kuroguwai (EK) and Sagittaria trifolia (ST).

Monochoria vaginalis [2] = test: Greenhouse transplant rice test, MV; conditions: Pontederia vaginalis, about 3 WAT, read-out: Percent Inhibition, MV
Source text: as §1, §2

Rice = test: Field transplant rice test, applied 0 DAT, rice injury; conditions: Oryza sativa, 0 h, read-out: Percent Inhibition, Rice; for inhibition at 375 g/ha: 0.375 Kg/Ha; for inhibition at 750 g/ha: 0.75 Kg/Ha; for inhibition at 1500 g/ha: 1.5 Kg/Ha; for inhibition at 3000 g/ha: 3.0 Kg/Ha
Method in brief: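 Field test in transplant rice with herbicide applied as granules at transplanting (0 DAT), at rates from 3.0 kg/ha down to 0.375 kg/ha. Injury was rated weekly from 2 to 6 weeks after transplant. Granules held 2.5% or 5.0% herbicide by weight, depending on compound.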

Echinochloa crus-galli [3] = test: Field transplant rice test, applied 0 DAT, EC; conditions: 0 h, read-out: Percent Inhibition, EC; for inhibition at 375 g/ha: 0.375 Kg/Ha; for inhibition at 750 g/ha: 0.75 Kg/Ha; for inhibition at 1500 g/ha: 1.5 Kg/Ha; for inhibition at 3000 g/ha: 3.0 Kg/Ha
Method in brief: (§3)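 Field test in transplanted rice, herbicide applied as granules (2.5% or 5.0% w/w active) at transplanting (0 DAT). Rates from 3.0 kg/ha down to 0.375 kg/ha. Weed control observed weekly from 2 to 6 weeks after transplant, reported at 2, 4 and 6 WAT.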

Monochoria vaginalis [4] = test: Field transplant rice test, applied 0 DAT, MV; conditions: Pontederia vaginalis, 0 h, read-out: Percent Inhibition, MV; for inhibition at 375 g/ha: 0.375 Kg/Ha; for inhibition at 750 g/ha: 0.75 Kg/Ha; for inhibition at 1500 g/ha: 1.5 Kg/Ha; for inhibition at 3000 g/ha: 3.0 Kg/Ha
Method in brief: as §3

Eleocharis kuroguwai = test: Field transplant rice test, applied 0 DAT, EK; conditions: 0 h, read-out: Percent Inhibition, EK; for inhibition at 375 g/ha: 0.375 Kg/Ha; for inhibition at 750 g/ha: 0.75 Kg/Ha; for inhibition at 1500 g/ha: 1.5 Kg/Ha; for inhibition at 3000 g/ha: 3.0 Kg/Ha
Method in brief: as §3

Cyperus serotinus = test: Field transplant rice test, applied 9 DAT, CS; conditions: for inhibition at 375 g/ha / inhibition at 750 g/ha / inhibition at 1500 g/ha / inhibition at 3000 g/ha: Cyperus serotinus, 216 h, read-out: Percent Inhibition, CS; for inhibition at 375 g/ha: 0.375 Kg/Ha; for inhibition at 750 g/ha: 0.75 Kg/Ha; for inhibition at 1500 g/ha: 1.5 Kg/Ha; for inhibition at 3000 g/ha: 3.0 Kg/Ha
Method in brief: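 Field test in transplanted rice, herbicides applied as granules (2.5% or 5.0% w/w active) 9 days after transplant at 3.0 down to 0.375 kg/ha. Weed control observed weekly from 3 to 7 weeks after transplant.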

`CCCCOCN(C(=O)CCl)c1c(CC)cccc1CC` [Compound A, 2',6'-diethyl-N-(n-butoxymethyl)-2-chloroacetanilide] gave an inhibition at 280 g/ha (Echinochloa crus-galli [1]; 0.28 Kg/Ha) of 96%, an inhibition at 560 g/ha (Echinochloa crus-galli [1]; 0.56 Kg/Ha) of 100% and an inhibition at 1120 g/ha (Echinochloa crus-galli [1]; 1.12 Kg/Ha) of 100%. It also gave an inhibition at 2240 g/ha (Echinochloa crus-galli [1]; 2.24 Kg/Ha) of 100%, an inhibition at 280 g/ha (Monochoria vaginalis [2]; 0.28 Kg/Ha) of 98% and an inhibition at 560 g/ha (Monochoria vaginalis [2]; 0.56 Kg/Ha) of 100%. For the same molecule, the inhibition at 1120 g/ha (Monochoria vaginalis [2]; 1.12 Kg/Ha) was 100%, the inhibition at 2240 g/ha (Monochoria vaginalis [2]; 2.24 Kg/Ha) was 100% and the inhibition at 375 g/ha (Rice; 2 WAT) was 8%. For the same molecule, the inhibition at 375 g/ha (Rice; 4 WAT) was 10%, the inhibition at 375 g/ha (Rice; 6 WAT) was 7% and the inhibition at 750 g/ha (Rice; 2 WAT) was 2%. For the same molecule, the inhibition at 750 g/ha (Rice; 4 WAT) was 0%, the inhibition at 750 g/ha (Rice; 6 WAT) was 0% and the inhibition at 1500 g/ha (Rice; 2 WAT) was 8%. The inhibition at 1500 g/ha (Rice; 4 WAT) was 23%, the inhibition at 1500 g/ha (Rice; 6 WAT) was 5% and the inhibition at 3000 g/ha (Rice; 2 WAT) was 10%. It also gave an inhibition at 3000 g/ha (Rice; 4 WAT) of 2%, an inhibition at 3000 g/ha (Rice; 6 WAT) of 3% and an inhibition at 375 g/ha (Echinochloa crus-galli [3]; 2 WAT) of 60%. It also gave an inhibition at 375 g/ha (Echinochloa crus-galli [3]; 4 WAT) of 72%, an inhibition at 375 g/ha (Echinochloa crus-galli [3]; 6 WAT) of 60% and an inhibition at 750 g/ha (Echinochloa crus-galli [3]; 2 WAT) of 90%. The inhibition at 750 g/ha (Echinochloa crus-galli [3]; 4 WAT) was 100%, the inhibition at 750 g/ha (Echinochloa crus-galli [3]; 6 WAT) was 100% and the inhibition at 1500 g/ha (Echinochloa crus-galli [3]; 2 WAT) was 95%. The inhibition at 1500 g/ha (Echinochloa crus-galli [3]; 4 WAT) was 100%, the inhibition at 1500 g/ha (Echinochloa crus-galli [3]; 6 WAT) was 97% and the inhibition at 3000 g/ha (Echinochloa crus-galli [3]; 2 WAT) was 98%. The inhibition at 3000 g/ha (Echinochloa crus-galli [3]; 4 WAT) was 100%, the inhibition at 3000 g/ha (Echinochloa crus-galli [3]; 6 WAT) was 100% and the inhibition at 375 g/ha (Monochoria vaginalis [4]; 2 WAT) was 98%. It also gave an inhibition at 375 g/ha (Monochoria vaginalis [4]; 4 WAT) of 87%, an inhibition at 375 g/ha (Monochoria vaginalis [4]; 6 WAT) of 82% and an inhibition at 750 g/ha (Monochoria vaginalis [4]; 2 WAT) of 100%. The inhibition at 750 g/ha (Monochoria vaginalis [4]; 4 WAT) was 98%, the inhibition at 750 g/ha (Monochoria vaginalis [4]; 6 WAT) was 100% and the inhibition at 1500 g/ha (Monochoria vaginalis [4]; 2 WAT) was 100%. For the same molecule, the inhibition at 1500 g/ha (Monochoria vaginalis [4]; 4 WAT) was 100%, the inhibition at 1500 g/ha (Monochoria vaginalis [4]; 6 WAT) was 100% and the inhibition at 3000 g/ha (Monochoria vaginalis [4]; 2 WAT) was 100%. It also gave an inhibition at 3000 g/ha (Monochoria vaginalis [4]; 4 WAT) of 100%, an inhibition at 3000 g/ha (Monochoria vaginalis [4]; 6 WAT) of 100% and an inhibition at 375 g/ha (Eleocharis kuroguwai; 2 WAT) of 65%. It also gave an inhibition at 375 g/ha (Eleocharis kuroguwai; 4 WAT) of 33%, an inhibition at 375 g/ha (Eleocharis kuroguwai; 6 WAT) of 10% and an inhibition at 750 g/ha (Eleocharis kuroguwai; 2 WAT) of 45%. For the same molecule, the inhibition at 750 g/ha (Eleocharis kuroguwai; 4 WAT) was 22%, the inhibition at 750 g/ha (Eleocharis kuroguwai; 6 WAT) was 0% and the inhibition at 1500 g/ha (Eleocharis kuroguwai; 2 WAT) was 83%. For the same molecule, the inhibition at 1500 g/ha (Eleocharis kuroguwai; 4 WAT) was 78%, the inhibition at 1500 g/ha (Eleocharis kuroguwai; 6 WAT) was 28% and the inhibition at 3000 g/ha (Eleocharis kuroguwai; 2 WAT) was 90%. It also gave an inhibition at 3000 g/ha (Eleocharis kuroguwai; 4 WAT) of 88%, an inhibition at 3000 g/ha (Eleocharis kuroguwai; 6 WAT) of 68% and an inhibition at 375 g/ha (Cyperus serotinus; 3 WAT) of 80%. It also gave an inhibition at 375 g/ha (Cyperus serotinus; 5 WAT) of 33%, an inhibition at 375 g/ha (Cyperus serotinus; 7 WAT) of 67% and an inhibition at 750 g/ha (Cyperus serotinus; 3 WAT) of 70%. It also gave an inhibition at 750 g/ha (Cyperus serotinus; 5 WAT) of 50%, an inhibition at 750 g/ha (Cyperus serotinus; 7 WAT) of 38% and an inhibition at 1500 g/ha (Cyperus serotinus; 3 WAT) of 100%. For the same molecule, the inhibition at 1500 g/ha (Cyperus serotinus; 5 WAT) was 100%, the inhibition at 1500 g/ha (Cyperus serotinus; 7 WAT) was 100% and the inhibition at 3000 g/ha (Cyperus serotinus; 3 WAT) was 88%. The inhibition at 3000 g/ha (Cyperus serotinus; 5 WAT) was 100%, the inhibition at 3000 g/ha (Cyperus serotinus; 7 WAT) was 100% and the “selectivity factor (GR15/GR85), CS in transplant rice” value (Cyperus serotinus; between 3 WAT and 7 WAT) was 2.
